Among the data in ChEMBL document CHEMBL1133200, “Nonpeptide endothelin antagonists: from lower affinity pyrazol-5-ols to higher affinity pyrazole-5-carboxylic acids” (Bioorg Med Chem Lett, 2000) are IC50 and pKa values, retold here.

The target of data set [1] is T1, Endothelin-1 receptor (Rattus norvegicus, UniProt P26684).
T1 sequence (P26684 whole entry): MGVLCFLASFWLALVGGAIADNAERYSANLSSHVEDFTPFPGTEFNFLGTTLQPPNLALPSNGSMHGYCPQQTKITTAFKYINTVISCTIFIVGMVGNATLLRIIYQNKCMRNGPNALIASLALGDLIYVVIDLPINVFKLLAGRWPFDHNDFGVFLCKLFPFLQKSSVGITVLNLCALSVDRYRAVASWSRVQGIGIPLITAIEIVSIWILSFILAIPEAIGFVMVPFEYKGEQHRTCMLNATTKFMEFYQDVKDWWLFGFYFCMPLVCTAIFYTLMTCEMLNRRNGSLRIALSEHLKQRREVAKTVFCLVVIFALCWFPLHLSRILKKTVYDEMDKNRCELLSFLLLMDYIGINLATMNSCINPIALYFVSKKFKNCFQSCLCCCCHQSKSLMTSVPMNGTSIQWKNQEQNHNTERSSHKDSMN
In words: In vitro inhibition of endothelin binding to endothelin A receptor in rat heart ventricles was measured using a 125-I labelled ET-1 competition assay.

Data set [2] concerns the target T2, Endothelin receptor type B (Rattus norvegicus, UniProt P21451).
T2 sequence (P21451 whole entry): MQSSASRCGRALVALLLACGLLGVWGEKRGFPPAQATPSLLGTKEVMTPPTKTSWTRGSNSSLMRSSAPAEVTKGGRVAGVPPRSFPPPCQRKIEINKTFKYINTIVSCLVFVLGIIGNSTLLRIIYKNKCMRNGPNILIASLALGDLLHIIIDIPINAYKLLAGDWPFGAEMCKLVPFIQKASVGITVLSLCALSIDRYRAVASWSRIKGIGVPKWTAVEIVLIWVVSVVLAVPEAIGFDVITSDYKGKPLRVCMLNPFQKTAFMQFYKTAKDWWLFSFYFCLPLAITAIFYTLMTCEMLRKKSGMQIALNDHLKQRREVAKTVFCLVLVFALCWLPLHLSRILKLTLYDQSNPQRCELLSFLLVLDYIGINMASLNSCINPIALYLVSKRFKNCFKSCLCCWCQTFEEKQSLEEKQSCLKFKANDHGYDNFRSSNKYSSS
In words: In vitro inhibition of [125-I] labelled ET-1 endothelin binding to Endothelin B receptor in rat cerebellum. The format is tissue-based.

In data set [3] the target is T2, Endothelin receptor type B. As to the kind of experiment: In vitro inhibition of endothelin binding to Endothelin B receptor in rat cerebellum was measured using 125-I labelled ET-1 competition assay; No measurable affinity. The format is tissue-based.
For data set [4], the target named is T1, Endothelin-1 receptor. In words: In vitro inhibition of endothelin binding to Endothelin A receptor in rat heart ventricles was measured using 125-I labelled ET-1 competition assay; No measurable affinity.
Data set [5] in a line: pKa was determined in ethanol:water (1:1) system. The format is physicochemical.

The structures appear in SMILES notation. Bounds are passed on as bounds.

Regarding `COc1cccc(Cn2nc(C(F)(F)F)c(Cc3ccc4c(c3)OCO4)c2OCCO)c1`, the results for the IC50 in data set [1] and in data set [2] were 40 µM and greater than 25 µM, respectively.
For `O=c1c(Cc2ccc3c(c2)OCO3)c(C(F)(F)F)[nH]n1Cc1cccc(Cl)c1` the same measures were 1.9 µM and 14 µM.
Turning to `COc1cccc(Cn2nc(C(F)(F)F)c(Cc3ccc4c(c3)OCO4)c2OCCCC(=O)O)c1`, the IC50 entry is “Not Active” in data set [3] and 64 µM in data set [1].
For the molecule `COc1cccc(Cn2[nH]c(C(F)(F)F)c(Cc3cc4c(cc3Cl)OCO4)c2=O)c1`, the IC50 was found to be 0.6 µM in data set [1] and 2.4 µM in data set [2].
Consider `COc1cccc(Cn2[nH]c(C(F)(F)F)c(Cc3ccc(Cl)c(Cl)c3)c2=O)c1`, for which the IC50 in data set [1] worked out at 10 µM; in data set [2] it was 8.4 µM.
On to `COc1cccc(Cn2nc(C(F)(F)F)c(Cc3ccc4c(c3)OCO4)c2OCC(=O)O)c1`, for which the IC50 in data set [1] was determined as 0.45 µM; in data set [2], 2.2 µM.
For `COc1cccc(Cn2nc(-c3ccccc3)c(Cc3cc4c(cc3Cl)OCO4)c2C(=O)O)c1` the same measures were 0.018 µM and 0.034 µM.
Consider `COc1cccc(Cn2[nH]c(-c3ccc([N+](=O)[O-])cc3)c(Cc3ccc4c(c3)OCO4)c2=O)c1`, for which the figures for the IC50 in data set [1] and in data set [2] were 3.1 µM and 15 µM, respectively.
For `COc1ccc(Cc2[nH]n(Cc3cccc(OC)c3)c(=O)c2Cc2ccc3c(c2)OCO3)cc1` the same measures were 7.5 µM and 24 µM.
Consider `COc1cccc(Cn2[nH]c(C(F)(F)C(F)(F)C(F)(F)F)c(Cc3ccc4c(c3)OCO4)c2=O)c1`, for which the IC50 in data set [1] was determined as 0.14 µM; in data set [2], 1 µM.
For `COc1ccccc1Cn1[nH]c(C(F)(F)F)c(Cc2ccc3c(c2)OCO3)c1=O` the same measures were 1.8 µM and 33 µM.
In the case of `COc1cccc(Cn2[nH]c(C(F)(F)F)c(Cc3ccc(OC)c(OC)c3)c2=O)c1`, the IC50 entry in data set [3] and in data set [4] was “Not Active” in each case.
In the case of `O=C(O)COc1cccc(Cn2[nH]c(C(F)(F)F)c(Cc3ccc4c(c3)OCO4)c2=O)c1`, the IC50 in data set [1] worked out at 3.5 µM; in data set [2] it was 29 µM.
For `COc1ccc(Cn2[nH]c(C(F)(F)F)c(Cc3ccc4c(c3)OCO4)c2=O)cc1` the same measures were 2.1 µM and 9.2 µM.
`COc1cccc(Cn2[nH]c(C(F)(F)C(F)(F)F)c(Cc3ccc4c(c3)OCO4)c2=O)c1`: the IC50 in data set [1] turned out to be 0.11 µM; in data set [2], 3.3 µM.
In the case of `COc1cccc(Cn2[nH]c(-c3ccccc3)c(Cc3ccc4c(c3)OCO4)c2=O)c1`, the figures for the IC50 in data set [1] and in data set [2] were 0.42 µM and 3.2 µM, respectively.
Molecule `COc1cccc(Cn2[nH]c(C(F)(F)F)c(Cc3ccc4c(c3)OCO4)c2=O)c1` showed an IC50 in data set [2] of 11 µM.
On to `COc1cccc(Cn2[nH]c(C(F)(F)F)c(Cc3ccccc3)c2=O)c1`, for which the IC50 result was “Not Active” in data set [3] and 98 µM in data set [1].
`COc1cccc(Cn2[nH]c(C(F)(F)F)c(Cc3ccc(Cl)cc3)c2=O)c1`: the IC50 stood at 4.3 µM in data set [1] and 22 µM in data set [2].
As to `COc1cccc(Cn2[nH]c(C(F)(F)F)c(Cc3ccc(F)cc3)c2=O)c1`, the IC50 result is “Not Active” in data set [3] and 40 µM in data set [1].
For the molecule `O=c1c(Cc2ccc3c(c2)OCO3)c(C(F)(F)F)[nH]n1Cc1ccc2c(c1)OCO2`, the IC50 turned out to be 5.6 µM in data set [1] and 17 µM in data set [2].
For `O=c1c(Cc2ccc3c(c2)OCO3)c(C(F)(F)F)[nH]n1Cc1ccccc1` the same measures were 10 µM and 24 µM.
As for `COc1cccc(Cn2nc(C(F)(F)F)c(Cc3ccc4c(c3)OCO4)c2OC)c1`, the concentration for half-maximal inhibition (IC50) result in data set [3] and in data set [4] was “Not Active” throughout. This molecule yielded a pKa in data set [5] of 6.
`COc1ccc(Cn2[nH]c(C(F)(F)F)c(Cc3ccc4c(c3)OCO4)c2=O)c(OCC(=O)O)c1`: the results for the IC50 in data set [1] and in data set [2] were 3.8 µM and 12 µM, respectively.
For `COc1cccc(Cn2[nH]c(C(F)(F)F)c(Cc3cc(Cl)c4c(c3)OCO4)c2=O)c1` the same measures were 1.3 µM and 5.4 µM.
For `COc1cccc(Cn2nc(-c3ccccc3)c(Cc3ccc4c(c3)OCO4)c2C(=O)O)c1` the same measures were 0.028 µM and 0.04 µM.
Turning to `O=c1c(Cc2ccc3c(c2)OCO3)c(C(F)(F)F)[nH]n1Cc1ccccc1Cl`, the IC50 in data set [1] amounted to 3.8 µM; in data set [2], 25 µM.
As to `CCOC(=O)COc1c(Cc2ccc3c(c2)OCO3)c(C(F)(F)F)nn1Cc1cccc(OC)c1`, the IC50 entry in data set [3] and in data set [4] was “Not Active” throughout.
`COc1cccc(Cn2[nH]c(C)c(Cc3ccc4c(c3)OCO4)c2=O)c1`: the IC50 entry in data set [3] was “Not Active”; in data set [1], 20 µM.
For the molecule `COc1cccc(Cn2[nH]c(C(F)(F)F)c(Cc3cc(OC)c(OC)c(OC)c3)c2=O)c1`, the IC50 result in data set [3] and in data set [4] was “Not Active” in each case.
Take `O=c1c(Cc2ccc3c(c2)OCO3)c(C(F)(F)F)[nH]n1Cc1cccc(O)c1`: the IC50 in data set [1] was found to be 1.7 µM; in data set [2], 36 µM.
For `COc1ccc(Cc2c(C(F)(F)F)[nH]n(Cc3cccc(OC)c3)c2=O)cc1` the same measures were 48 µM and 39 µM.

In general, IC50 refers to the concentration that inhibits the measured activity by half. Lower therefore signals higher potency. As usually defined, the pKa is the pH at which an ionisable group is half protonated.
